# Reference: patent US11053216B2, “Compounds and methods of use” (Medivation Technologies LLC, priority 2014, dated 2021)
# Legend:
# [1] = Pharmacokinetics and bioavailability in male mice after a single dose; type: in vivo
# [2] = Plasma and brain concentrations at 0.5 and 1 h; type: in vivo, mice
# ALK3 (BMPR1A) = ALK3 (BMPR1A) (Homo sapiens (Human), UniProt P36894); assay: In vitro kinase assay (33P ATP, 10 μM ATP); type: biochemical; settings: read-out: Inhibition of ALK3 (IC50 μM)
# Chain of ALK3 (BMPR1A) (P36894 24-532): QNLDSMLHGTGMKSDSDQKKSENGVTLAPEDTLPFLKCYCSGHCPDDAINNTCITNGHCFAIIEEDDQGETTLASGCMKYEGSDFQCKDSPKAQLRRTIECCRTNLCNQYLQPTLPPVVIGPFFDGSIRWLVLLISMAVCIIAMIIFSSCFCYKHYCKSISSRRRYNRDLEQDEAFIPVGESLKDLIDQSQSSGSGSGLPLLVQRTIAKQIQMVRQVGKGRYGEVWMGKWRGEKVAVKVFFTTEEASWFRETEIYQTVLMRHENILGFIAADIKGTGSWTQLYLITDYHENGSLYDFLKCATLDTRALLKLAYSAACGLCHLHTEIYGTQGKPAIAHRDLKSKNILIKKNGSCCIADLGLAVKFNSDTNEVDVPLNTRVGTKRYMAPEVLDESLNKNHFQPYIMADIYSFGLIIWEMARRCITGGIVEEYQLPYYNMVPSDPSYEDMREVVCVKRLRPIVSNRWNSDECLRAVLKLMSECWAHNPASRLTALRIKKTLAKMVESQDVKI
Structure (SMILES),"Cmax ([1]; oral, 10 mg/kg)","Brain concentration ([2]; IV 2 mg/kg, 0.5 h)","Plasma concentration ([2]; IV 2 mg/kg, 0.5 h)","Brain concentration ([2]; IV 2 mg/kg, 1 h)","Plasma concentration ([2]; IV 2 mg/kg, 1 h)","Brain concentration ([2]; PO 10 mg/kg, 0.5 h)","Plasma concentration ([2]; PO 10 mg/kg, 0.5 h)","Brain concentration ([2]; PO 10 mg/kg, 1 h)","Plasma concentration ([2]; PO 10 mg/kg, 1 h)",other results
"CCc1cnc(-c2cc(Cl)ccc2F)cc1Nc1ccncc1C(=O)NC[C@H](C)O (single isomer, unassigned) [11a]",3.48 µM,,,,,,,,,
"CC(C)c1cnc(-c2cc(Cl)ccc2F)cc1Nc1ncncc1C(=O)NC[C@H](C)O (single isomer, unassigned) [12a]",,,,,,,,,,"Cmax ([1]; mouse, plasma, intravenous, 2 mg/kg): 7.15 µM"
"CC(C)c1cnc(-c2cc(Cl)ccc2F)cc1Nc1ccncc1C(=O)NC[C@H](C)O [2a, (S)-4-[[2-(5-chloro-2-fluoro-phenyl)-5-isopropyl-4-pyridyl]amino]-N-(2-hydroxypropyl)pyridine-3-carboxamide]",,73.2 ng/mL,310 ng/mL,82.4 ng/mL,366 ng/mL,202 ng/mL,1570 ng/mL,114 ng/mL,905 ng/mL,
"C=C(C)c1cnc(-c2cc(Cl)ccc2F)cc1Nc1ccncc1C(=O)NC[C@H](C)O [3a, (S)-4-(2-(5-chloro-2-fluorophenyl)-5-(prop-1-en-2-yl)pyridin-4-ylamino)-N-(2-hydroxypropyl)pyridine-5-carboxamide]",,173 ng/mL,432 ng/mL,168 ng/mL,365 ng/mL,305 ng/mL,1280 ng/mL,406 ng/mL,1250 ng/mL,
"C[C@H](O)CNC(=O)c1cnccc1Nc1cc(-c2cc(Cl)ccc2F)ncc1N(C)C [16a, (S)-4-(2-(5-chloro-2-fluorophenyl)-5-(dimethylamino)pyridin-4-ylamino)-N-(2-hydroxypropyl)nicotinamide]",3.42 µM,,,,,,,,,
"Fc1ccc(Cl)cc1-c1cc(Nc2ccnc3[nH]ccc23)c(C2CC2)cn1 [compound 32, 2-(5-chloro-2-fluorophenyl)-5-cyclopropyl-N-{1H-pyrrolo[2,3-b]pyridin-4-yl}pyridin-4-amine]",,,,,,,,,,IC50 (ALK3 (BMPR1A)): 333 µM
